For six molecules, inhibition results are on record in ChEMBL document CHEMBL2311396, “Xanthone derivatives as potential inhibitors of miRNA processing by human Dicer: targeting secondary structures of pre-miRNA by small molecules” (Bioorg Med Chem Lett, 2013).

In assay [1] the target is Endoribonuclease Dicer (Homo sapiens) (UniProt Q9UPY3). The experiment in a line: Inhibition of human recombinant Dicer-mediated pre-miR-29a processing assessed as reduction of mature miR-29a formation at 200 uM after 3 hrs by Northern blot analysis.
Sequence of Endoribonuclease Dicer (Homo sapiens) (Q9UPY3 whole entry): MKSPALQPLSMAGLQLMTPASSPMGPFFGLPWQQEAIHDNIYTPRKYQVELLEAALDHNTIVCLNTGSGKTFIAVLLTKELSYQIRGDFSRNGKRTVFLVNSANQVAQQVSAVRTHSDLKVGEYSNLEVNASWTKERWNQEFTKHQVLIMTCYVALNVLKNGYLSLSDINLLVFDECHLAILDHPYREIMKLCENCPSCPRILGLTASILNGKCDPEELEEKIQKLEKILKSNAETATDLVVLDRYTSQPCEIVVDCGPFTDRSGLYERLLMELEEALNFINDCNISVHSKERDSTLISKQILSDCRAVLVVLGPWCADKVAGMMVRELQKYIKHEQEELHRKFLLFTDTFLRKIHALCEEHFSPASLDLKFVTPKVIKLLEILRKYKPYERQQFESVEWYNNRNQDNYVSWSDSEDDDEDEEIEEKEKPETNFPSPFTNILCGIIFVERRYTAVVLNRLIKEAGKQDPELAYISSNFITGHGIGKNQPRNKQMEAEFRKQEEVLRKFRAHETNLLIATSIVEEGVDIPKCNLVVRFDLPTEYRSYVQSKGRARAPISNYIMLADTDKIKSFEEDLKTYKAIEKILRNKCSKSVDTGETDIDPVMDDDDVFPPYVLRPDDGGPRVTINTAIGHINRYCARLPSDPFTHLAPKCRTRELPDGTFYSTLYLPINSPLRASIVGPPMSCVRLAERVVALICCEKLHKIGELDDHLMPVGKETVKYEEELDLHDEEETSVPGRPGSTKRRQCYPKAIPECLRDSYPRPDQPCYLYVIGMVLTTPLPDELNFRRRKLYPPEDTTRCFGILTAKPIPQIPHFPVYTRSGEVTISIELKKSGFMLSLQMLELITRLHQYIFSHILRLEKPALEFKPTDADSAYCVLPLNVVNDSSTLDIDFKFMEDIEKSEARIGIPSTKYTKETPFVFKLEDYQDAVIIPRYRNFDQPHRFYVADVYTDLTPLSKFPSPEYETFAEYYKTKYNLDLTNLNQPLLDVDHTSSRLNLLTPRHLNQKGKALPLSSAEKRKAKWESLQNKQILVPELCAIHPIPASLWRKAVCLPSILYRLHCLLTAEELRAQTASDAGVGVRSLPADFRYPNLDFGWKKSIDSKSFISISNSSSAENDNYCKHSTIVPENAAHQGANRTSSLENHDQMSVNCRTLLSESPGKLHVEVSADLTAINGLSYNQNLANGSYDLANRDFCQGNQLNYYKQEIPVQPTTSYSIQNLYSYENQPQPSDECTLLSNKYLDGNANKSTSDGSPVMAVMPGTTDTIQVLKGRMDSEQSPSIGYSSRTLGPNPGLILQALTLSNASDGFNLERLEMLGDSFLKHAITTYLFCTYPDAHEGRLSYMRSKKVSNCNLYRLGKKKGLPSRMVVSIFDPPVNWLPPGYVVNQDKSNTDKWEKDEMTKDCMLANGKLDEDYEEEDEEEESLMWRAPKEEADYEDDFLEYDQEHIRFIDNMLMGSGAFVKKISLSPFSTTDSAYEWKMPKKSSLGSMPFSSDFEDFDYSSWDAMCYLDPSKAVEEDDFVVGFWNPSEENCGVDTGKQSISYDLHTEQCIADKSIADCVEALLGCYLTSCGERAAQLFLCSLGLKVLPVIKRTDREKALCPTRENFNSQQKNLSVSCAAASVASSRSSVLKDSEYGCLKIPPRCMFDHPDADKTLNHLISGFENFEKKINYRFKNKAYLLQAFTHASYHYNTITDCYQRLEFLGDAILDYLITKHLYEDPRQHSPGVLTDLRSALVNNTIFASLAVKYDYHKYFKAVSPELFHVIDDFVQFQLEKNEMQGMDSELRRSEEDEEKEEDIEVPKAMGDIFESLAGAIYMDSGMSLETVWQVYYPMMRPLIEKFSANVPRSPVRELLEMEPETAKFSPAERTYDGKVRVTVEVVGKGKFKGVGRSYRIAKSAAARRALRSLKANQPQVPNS
For assay [2] the target is unchanged. The experiment in a line: Inhibition of human recombinant Dicer-mediated long dsRNA digestion assessed as 21- to 23-mer short RNA formation at 200 uM after 3 hrs by denaturing-PAGE analysis.
The target is the same in assay [3]. The experiment in a line: Inhibition of human recombinant Dicer-mediated pre-miR-29a processing assessed as reduction of mature miR-29a formation by Northern blot analysis (reference value: 41%). The note with it: concentration not given here.
For assay [4] the target is unchanged. The experiment in a line: Inhibition of human recombinant Dicer-mediated pre-miR-29a without internal loop processing assessed as reduction of mature miR-29a formation by Northern blot analysis (reference value: 30%). The note with it: concentration not given here.
Assay [5] shares this target. Kind of assay: Inhibition of human recombinant Dicer-mediated pre-miR-29a without bulge loop processing assessed as reduction of mature miR-29a formation by Northern blot analysis (reference value: 51%). The following applies: concentration not given here.

The source made the active and inactive calls. No cut-off for these calls is given here.

Broadly, the inhibition is the drop in the measured response relative to a control, in per cent. For the molecule `CN(C)CCOc1ccc2oc3ccc(OCCN(C)C)cc3c(=O)c2c1`, the inhibition entry in assay [1] and in assay [2] was “inactive” throughout.

With `NCCOc1ccc2oc3ccc(OCCN)cc3c(=O)c2c1`, the inhibition entry in assay [1] is “Active”. For the same molecule, the inhibition result in assay [2] is “inactive”.

Regarding `NCCCCCCOc1ccc2oc3ccc(OCCCCCCN)cc3c(=O)c2c1`, the inhibition result in assay [1] and in assay [2] was “inactive” in each case.

For `CC(CN)Oc1ccc2oc3ccc(OC(C)CN)cc3c(=O)c2c1` (stereo not given), the inhibition entry in assay [1] and in assay [2] was “inactive” in each case.

As for `NCCOc1ccc2sc3ccc(OCCN)cc3c(=O)c2c1`, the inhibition is 23% in assay [3], 22% in assay [4] and 46% in assay [5]. Also, the inhibition result in assay [1] was “Active”. For the same molecule, in assay [2], the inhibition entry is “inactive”.

As for `CN(C)CCOc1ccc2sc3ccc(OCCN(C)C)cc3c(=O)c2c1`, the inhibition result in assay [1] and in assay [2] was “inactive” each time.
